In one data set the test system is mouse cutaneous injury. As to the kind of experiment: Mouse skin wound healing model. The data set is classed as in vivo, CD-1 derived male mice. The note with it: topical once daily for 10 days; test substances 100 μg/mouse, CGS-21680 10 μg/mouse. The procedure:
In-vivo assays: Selected compounds were evaluated in an in-vivo mouse skin wound healing model by MDS Pharma Services using the following protocol. Groups of CD-1 derived male mice (n=5) weighting 24±2 g were used. Under hexobarbitol (90 mg/kg, IP) anesthesia, the shoulder and back region of each animal was shaved. A sharp punch (ID 12 mm) was applied to remove the skin including panniculus carnosus and adherent tissues. […] The percent closure of the wound (%) was calculated, and wound half-closure time (CT50) was analyzed by linear regression using Graph-Prism (Graph Software USA). One-way ANOVA followed by Dunnett's test was applied for comparison between the treated and its corresponding vehicle groups at each measurement time point. Differences are considered statistically significant at P<0.05.^41

Data set [1] has as its system Mycobacterium ranae (ATCC 110). The conditions noted are these: for MIC Mycobacterium ranae / Minimum Inhibitory Concentration Mycobacterium ranae: ATCC 110.
For data set [2], the system named is Staphylococcus aureus Methicillin/Gentamicin/Tetracycline Resistant (ATCC 33592). The note with it: for MIC Staphylococcus aureus ME/GM/TC resistant: Minimal Inhibitory Concentration, tested at 100-0.1 in 1% DMSO; for Minimum Inhibitory Concentration Staphylococcus aureus ME/GM/TC resistant: in vitro MIC, tested at 100, 30, 10, 3, 1, 0.3 and 0.1 μM in 1% DMSO.
Data set [3] can be described thus: in vitro. The conditions noted are these: human, microsomes, pH 7.4.
The test system of data set [4] is Salmonella typhimurium (ATCC 13311). The note with it: for MIC Salmonella typhimurium: ATCC 13311.
A short description of data set [5]: in vitro. The note with it: dog, microsomes, pH 7.4.
Data set [6] can be described thus: in vitro. The note with it: mouse, microsomes, pH 7.4.
Data set [7] can be described thus: in vitro. The note with it: rat, microsomes, pH 7.4.
In data set [8] the test system is Bacillus subtillis (ATCC 43223). The conditions noted are these: for MIC Bacillus Subtillis: ATCC 43223.
A short description of data set [9]: in vitro. The conditions noted are these: monkey, microsomes, pH 7.4.
A short description of data set [10]: Metabolic stability, human liver microsomes.
A short description of data set [11]: Metabolic stability, dog liver microsomes. The note with it: dog, microsomes, pH 7.4. (In general: Liver microsomes are vesicles of endoplasmic reticulum, rich in cytochrome P450 enzymes.)
The nature of data set [12]: Metabolic stability, mouse liver microsomes. The note with it: mouse, microsomes, pH 7.4.
The nature of data set [13]: Metabolic stability, monkey liver microsomes. The note with it: monkey, microsomes, pH 7.4.
The nature of data set [14]: Metabolic stability, rat liver microsomes. The conditions noted are these: rat, microsomes, pH 7.4.

In brackets after ≈: the same amount, converted by molar mass. *1 amine or outer side, *2 acyl side, *3 side chain or, on linkers, in order; H or OH if unused. Where a SMILES comes first, the peptide text is derived from it. [ ]: non-standard residue; d: D form. ξ: configuration not given here. Oic = O=C(O)[C@@H]1C[C@@H]2CCCC[C@@H]2N1; Ethylenediamine = C(CN[*:2])N[*:1]; Tic = O=C(O)[C@@H]1Cc2ccccc2CN1; ξTic = O=C(O)C1Cc2ccccc2CN1; ξOic = O=C(O)C1CC2CCCCC2N1

`CCNC(=O)[C@H]1O[C@@H](n2cnc3c(N)nc(NCCc4ccc(CCC(=O)O)cc4)nc32)[C@H](O)[C@@H]1O` [CGS-21680, 2-p-[2-carboxyethyl]phenethyl-amino-5′-N-ethylcarboxamide-adenosine, reference compound]: in the data set on mouse cutaneous injury, the “CT50 (wound half-closure time)” value is on record as 5.4 days, the “wound closure Day 3” value is on record as 41.1%, the “wound closure Day 5” value stood at 54.6% and the “wound closure Day 7” value was found to be 70.6%. Moreover, in the data set with mouse cutaneous injury, the “wound closure Day 9” value came to 77.6% and the “wound closure Day 11” value is reported as 84.3%.
Take `CC(=O)NCC(=O)N[C@@H](Cc1ccccc1)C(=O)N[C@@H](Cc1ccccc1)C(=O)N1C(C(=O)NCC(=O)N[C@@H](CCCCN)C(=O)N[C@@H](Cc2ccccc2)C(=O)N2C(C(=O)NCC(=O)N[C@@H](Cc3ccccc3)C(=O)N[C@@H](Cc3ccccc3)C(=O)N3C(C(=O)NCC(=O)N[C@@H](CCCCN)C(=O)N[C@@H](Cc4ccccc4)C(=O)N[C@@H](CCCCN)C(=O)N[C@@H](CCCCN)C(=O)N[C@@H](CCCCN)C(=O)N[C@@H](CCCCN)C(N)=O)CC4CCCCC43)CC3CCCCC32)CC2CCCCC21` (stereo partly drawn) [FKAB-1Gh, Ac-GF-F-Oic-GK-F-Oic-GF-F-Oic-GK-F-KKKK-CONH2] (Ac-GFF[ξOic]GKF[ξOic]GFF[ξOic]GKFKKKK-NH2): in data set [1], the “MIC Mycobacterium ranae” value turned out to be 10.00 µM (≈ 23.9 µg/mL) and the “Minimum Inhibitory Concentration Mycobacterium ranae” value amounted to 10 µM. For the same compound, in data set [2], the “MIC Staphylococcus aureus ME/GM/TC resistant” value was 10.00 µM (≈ 23.9 µg/mL) and the “Minimum Inhibitory Concentration Staphylococcus aureus ME/GM/TC resistant” value was 10 µM. For the same compound, in the data set “in vitro [3]”, the amount remaining at 0.25 h, 1 μM is 92%. Besides, the “MIC Salmonella typhimurium” value in data set [4] was determined as 10 µM (≈ 23.9 µg/mL). Further, in the data set on red blood cells, the “% hemolysis 100/25 μM (first value)” value came to 27.30%/ and the “% hemolysis 100/25 μM (second value)” value turned out to be 8.9%. Further, in the data set “in vitro [5]”, the fraction remaining at 0.5 h, 1 μM worked out at 103% and the amount remaining at 1 h, 1 μM amounted to 60%. In the data set “in vitro [6]”, the fraction remaining at 0.25 h, 1 μM stood at 36%; the fraction remaining at 0.5 h, 1 μM amounted to 71%; the fraction remaining at 1 h, 1 μM came to 112%. The amount remaining at 1 h, 1 μM in “in vitro [7]” is 0%. In [8], the “MIC Bacillus Subtillis” value turned out to be 1.00 µM (≈ 2.39 µg/mL).
Consider `CC(C)NCC(O)COc1cccc2ccccc12` (stereo not drawn) [Propranolol, propranolol, reference compound], for which the amount remaining at 0.25 h, 1 μM in the data set “in vitro [3]” worked out at 97%; in “in vitro [5]”, 76%; in “in vitro [9]”, 34%; in “in vitro [6]”, 9%; in “in vitro [7]”, 0.1%. For the same compound, the fraction remaining at 0.5 h, 1 μM in “in vitro [3]” was found to be 86%; in “in vitro [5]” it was 51%; in “in vitro [9]”, 9%; in “in vitro [6]”, 9%; in “in vitro [7]”, 0.1%. For the same compound, the fraction remaining at 1 h, 1 μM in the data set “in vitro [3]” is 72%; in “in vitro [5]” it was 24%; in the data set “in vitro [9]”, 0.5%; in the data set “in vitro [6]”, 4%; in “in vitro [7]” it was 0.1%.
Turning to `CC(=O)NCC(=O)N[C@@H](Cc1ccccc1)C(=O)N1Cc2ccccc2C[C@H]1C(=O)N1[C@H](C(=O)NCC(=O)N[C@@H](CCCCN)C(=O)N2Cc3ccccc3C[C@H]2C(=O)N2[C@H](C(=O)NCC(=O)N[C@@H](Cc3ccccc3)C(=O)N3Cc4ccccc4C[C@H]3C(=O)N3[C@H](C(=O)NCC(=O)N[C@@H](CCCCN)C(=O)N4Cc5ccccc5C[C@H]4C(=O)N[C@@H](CCCCN)C(=O)N[C@@H](CCCCN)C(=O)N[C@@H](CCCCN)C(=O)N[C@@H](CCCCN)C(=O)NCCN)C[C@@H]4CCCC[C@@H]43)C[C@@H]3CCCC[C@@H]32)C[C@@H]2CCCC[C@@H]21` [FKAB-1H, Ac-GF-Tic-Oic-GK-Tic-Oic-GF-Tic-Oic-GK-Tic-KKKK-CONH—CH2—CH2—NH2] (Ac-GF[Tic][Oic]GK[Tic][Oic]GF[Tic][Oic]GK[Tic]KKKK-Ethylenediamine), in data set [1], the “Actual Bioactivity” value is listed as 5.000, the “MIC Mycobacterium ranae” value is 10.00 µM (≈ 24.8 µg/mL) and the “Minimum Inhibitory Concentration Mycobacterium ranae” value came out at 10 µM. Moreover, the “p(MIC) Staphylococcus aureus ME/GM/TC resistant” value in data set [2] (-log(MIC)) was found to be 5.52. For the same compound, in data set [2], the “MIC Staphylococcus aureus ME/GM/TC resistant” value came out at 3.00 µM (≈ 7.45 µg/mL) and the “Minimum Inhibitory Concentration Staphylococcus aureus ME/GM/TC resistant” value came out at 3 µM. Besides, the “Actual Bioactivity” value in [2] (p(MIC) used in Staphylococcus aureus QSAR model) was found to be 5.520. For the same compound, the amount remaining at 0.25 h, 1 μM in “in vitro [3]” came out at 34%. Besides, the “p(MIC) Salmonella typhimurium” value in data set [4] (-log(MIC)) was determined as 5.00. Further, in data set [4], the “MIC Salmonella typhimurium” value was determined as 10 µM (≈ 24.8 µg/mL). For the same compound, in “in vitro [9]”, the share remaining at 0.25 h, 1 μM was found to be 0%; the share remaining at 0.5 h, 1 μM worked out at 0%; the amount remaining at 1 h, 1 μM worked out at 0%. Further, in the data set “in vitro [6]”, the share remaining at 0.25 h, 1 μM was determined as 0%; the fraction remaining at 0.5 h, 1 μM was determined as 62%; the fraction remaining at 1 h, 1 μM came to 73%. Moreover, the “p(MIC) Bacillus Subtillis” value in [8] (-log(MIC)) was 6.00. Also, the “MIC Bacillus Subtillis” value in [8] worked out at 1.00 µM (≈ 2.48 µg/mL).
As to `CC(=O)NCC(=O)N[C@@H](Cc1ccccc1)C(=O)N1Cc2ccccc2CC1C(=O)N1C(C(=O)NCC(=O)N[C@@H](CCCCN)C(=O)N2Cc3ccccc3CC2C(=O)N2C(C(=O)NCC(=O)N[C@@H](Cc3ccccc3)C(=O)N3Cc4ccccc4CC3C(=O)N3C(C(=O)NCC(=O)N[C@@H](CCCCN)C(=O)N4Cc5ccccc5CC4C(=O)N[C@@H](CCCCN)C(=O)N[C@@H](CCCCN)C(=O)N[C@@H](CCCCN)C(=O)N[C@@H](CCCCN)C(=O)N[C@@H](CCCCN)C(N)=O)CC4CCCCC43)CC3CCCCC32)CC2CCCCC21` (stereo partly drawn) [FKAB-1Gi, Ac-GF-Tic-Oic-GK-Tic-Oic-GF-Tic-Oic-GK-Tic-KKKKK-CONH2] (Ac-GF[ξTic][ξOic]GK[ξTic][ξOic]GF[ξTic][ξOic]GK[ξTic]KKKKK-NH2), in data set [1], the “MIC Mycobacterium ranae” value amounted to 3.00 µM (≈ 7.71 µg/mL) and the “Minimum Inhibitory Concentration Mycobacterium ranae” value is 3 µM. In addition, in data set [2], the “MIC Staphylococcus aureus ME/GM/TC resistant” value was determined as 3.00 µM (≈ 7.71 µg/mL) and the “Minimum Inhibitory Concentration Staphylococcus aureus ME/GM/TC resistant” value turned out to be 3 µM. Further, the amount remaining at 0.25 h, 1 μM in “in vitro [3]” is 86%. The “MIC Salmonella typhimurium” value in data set [4] was 10 µM (≈ 25.7 µg/mL). For the same compound, in the data set on red blood cells, the “% hemolysis 100/25 μM (first value)” value stood at 24.9%/ and the “% hemolysis 100/25 μM (second value)” value is listed as 18.9%. In “in vitro [5]”, the fraction remaining at 0.5 h, 1 μM was determined as 63% and the fraction remaining at 1 h, 1 μM amounted to 79%. In “in vitro [9]”, the amount remaining at 0.25 h, 1 μM amounted to 72%; the fraction remaining at 0.5 h, 1 μM is 75%; the fraction remaining at 1 h, 1 μM is 99%. In addition, in “in vitro [6]”, the amount remaining at 0.25 h, 1 μM is 77%; the fraction remaining at 0.5 h, 1 μM was found to be 26%; the share remaining at 1 h, 1 μM is 15%. Besides, in the data set “in vitro [7]”, the amount remaining at 0.25 h, 1 μM turned out to be 76%; the fraction remaining at 0.5 h, 1 μM was determined as 86%; the amount remaining at 1 h, 1 μM amounted to 87%. Besides, the “MIC Bacillus Subtillis” value in data set [8] stood at 1.00 µM (≈ 2.57 µg/mL).
Turning to `CC(=O)CC(c1ccccc1)c1c(O)c2ccccc2oc1=O` (stereo not drawn) [Warfarin, warfarin, reference compound], the amount remaining at 0.5 h, 1 μM in “in vitro [3]” is 97%; in the data set “in vitro [5]”, 104%; in the data set “in vitro [9]” it was 109%; in the data set “in vitro [6]”, 111%; in “in vitro [7]”, 97%. Besides, the fraction remaining at 1 h, 1 μM in “in vitro [3]” turned out to be 97%; in “in vitro [5]”, 94%; in the data set “in vitro [9]”, 81%; in “in vitro [6]”, 110%; in “in vitro [7]” it was 84%. Moreover, the fraction remaining at 0.25 h, 1 μM in the data set “in vitro [5]” is 109%; in “in vitro [9]”, 113%; in “in vitro [6]”, 86%; in “in vitro [7]” it was 93%. Moreover, in [10] (first human column (T = 15 min, head not given), 1 μM, 0.5 mg/mL microsomes), the “% remaining at time T, Human Liver” value is 100%.
Take `C[C@]12CC[C@H]3[C@@H](CCC4=CC(=O)CC[C@@]43C)[C@@H]1CC[C@@H]2O` [Testosterone, testosterone, reference compound]: the fraction remaining at 0.25 h, 1 μM turned out to be 85% in [11]; 77% in [10] (human, microsomes, pH 7.4); 3% in data set [12]; 34% in data set [13]; 0% in data set [14]. Also, the fraction remaining at 0.5 h, 1 μM came to 62% in data set [11]; 53% in data set [10] (human, microsomes, pH 7.4); 0% in data set [12]; 11% in [13]; 0% in data set [14]. Also, the share remaining at 1 h, 1 μM in data set [11] turned out to be 33%; in data set [10] (human, microsomes, pH 7.4), 29%; in data set [13] it was 1%.
